Assay results: patent US3984555A, “Therapeutic piperazinylalkyl-quinazolone-(4)-derivatives” (Byk Gulden Lomberg Chemische Fabrik Gesellschaft mit …, priority 1970, dated 1976)
Read-outs that look alike come from different tables or passages of the source.

Tests used:
[1] = test system: hypertensive effect of 1-adrenalin; test: 50% inhibition of hypertensive effect of 0.001 mg/kg i/v 1-adrenalin on the despinalised rat (Table II); assay type: in vivo; conditions: iv, read-out: 50% inhibition of hypertensive effect after i/v dose of Adrenalin by mg/kg i/v
Procedure: (§1) also on the hypertensive effect of 0.001 mg/kg i/v 1-adrenalin and
(§2) blood pressure and the cardiac frequency of the narcosed rate and also on
(§3) the hypertensive effect of 0.001 mg/kg i.v. 1-adrenaline and noradrenaline
(§4) on the despinalised rat. The mean lethal doses for the mouse are also

mouse [2] = test: Inhibition of spontaneous motility, sedation, muscular relaxation, loss of grip on horizontal wire mesh in mice (Table III, b); assay type: in vivo; conditions: po, dose at which an average of 50% of the mice display symptoms, read-out: b SD50 mg/kg oral
[3] = LD50 (mean lethal dose) on the mouse (Table II); conditions: in vivo
From the text: as §4

[4] = test system: defence reaction after the thermal stimulation of the tail of the mouse; test: Analgesic effect on the mouse: delay in defence reaction after thermal stimulation of the tail (Table IV); assay type: in vivo; conditions: po, read-out: Delay in the defence reaction after the thermal stimulation of the tail of the mouse by 25% by mg/kg per os
From the text: From Table IV below one can see the analgesic action, measured in terms of the delayed reaction during the thermal irritation of the mouse tail. The analgesically effective doses are also below those which reduce the motor behaviour, that is to say the normal movement processes (cf. Table III).
Analgesic effect on the mouse
Delay in the defence reaction after
the thermal stimulation of the tail

[5] = test system: duration of sleep of mice under hexobarbital; test: Prolongation of hexobarbital sleep in mice (Table III, d); assay type: in vivo; conditions: Mus musculus, ip; 15 mg/kg i.p.; 75 mg/kg hexobarbital; read-out: d % prolongation of sleep under hexebarbital by 15 mg/kg i.p.
Procedure: d = percentage prolongation of the duration of sleep of mice which had received 75 mg/kg. of hexobarbital, reckoned on the duration of the sleep of control animals.

[6] = test system: blood pressure and cardiac frequency of the narcotised rat; test: Influence on the blood pressure and the cardiac frequency of the narcotised rat (Table II); assay type: in vivo; conditions: iv, i/v, read-out: Blood pressure lowered by 30% by mg/kg i/v
From the text: Influence on the blood pressure and the cardiac frequency of the
blood pressure and the cardiac frequency of the narcosed rate and also on […]

[7] = test system: running activity of mice pre-treated with α-amphetamine sulphate; test: Inhibition of running activity of mice pre-treated with α-amphetamine sulphate (Table III, c); assay type: in vivo; conditions: Mus musculus, ip, 3 h, 5 mg/kg α-amphetamine sulphate, 180 minutes; for inhibition in vivo at 12 mg/kg: 12mg/kg i/p, read-out: c % inhibition of motility in the treadwheel by 12mg/kg i/p; for inhibition in vivo at 25 mg/kg: 25mg/kg i/p, read-out: c % inhibition of motility in the treadwheel by 25mg/kg i/p
[8] = test system: hypertensive effect of noradrenalin; test: 50% inhibition of hypertensive effect of 0.001 mg/kg i/v noradrenalin on the despinalised rat (Table II); assay type: in vivo; conditions: iv, read-out: 50% inhibition of hypertensive effect after i/v dose of Noradrenalin by mg/kg i/v
Procedure: as §1, §2, §3, §4

mouse [9] = test: Mice falling from a rotating bar (Table III, a); assay type: in vivo; conditions: ip, read-out: a PD50 mg/kg i.p.
From the text: The central damping actions of the piperazinyl quinazolones on the mouse can be seen from Table III.
a = dose at which 50% of the mice fall from a rotating bar;

[10] = test system: blood pressure and cardiac frequency of the narcotised cat; test: Influence on the blood pressure and cardiac frequency of the narcotised cat (Table I); assay type: in vivo; set-up: unit not given here; conditions: for Blood pressure lowered by 30% by: dose lowering blood pressure by 30%; for Blood pressure lowered by 50% by: dose lowering blood pressure by 50%
From the text: (§5) Influence on the blood pressure and cardiac frequency and also
(§6) on the carotid sinus reflex of the narcotised cat
(§7) Table I provides a general summary of the influence of different piperazinylquinazolones on the blood pressure, the cardiac frequency and the carotid sinus reflex of the narcotised cat.

carotid sinus reflex = test: Inhibition of the carotid sinus reflex of the narcotised cat (Table I); assay type: in vivo; set-up: unit not given here; conditions: for Inhibition of the carotid sinus reflex by 30% by: dose for 30% inhibition; for Inhibition of the carotid sinus reflex by 50% by: dose for 50% inhibition
From the text: as §5, §6, §7
The inhibition of the carotid sinus reflex brought about by the piperazinyl quinazolones occurs at lower doses than the spontaneous lowering of the blood pressure in the cat.

[11] = dose at which 50% of the mice fall from a rotating bar

| Compound | ED50 [1] | ED50 (mouse [2]) | LD50 [3] | ED25 ([4]; mouse, per os, 25% delay) | change in vivo at 15 mg/kg [5] | ED30 [6] | inhibition in vivo at 12 mg/kg [7] | inhibition in vivo at 25 mg/kg [7] | ED50 [8] | ED50 (mouse [9]) | also measured |
| --- | --- | --- | --- | --- | --- | --- | --- | --- | --- | --- | --- |
| COc1cc2nc(CCN3CCN(c4ccc(F)cc4)CC3)[nH]c(=O)c2cc1OC [Example 16, 2-(2-(1(4-fluorophenyl)piperazinyl-4)ethyl)-6,7-dimethoxy-4(3H)-quinazolone] | 0.57 mg/kg | 65 mg/kg | 300 mg/kg | 2.5 mg/kg | 103% | 0.6 mg/kg | 10% | 49% | 4 mg/kg | 14 mg/kg |  |
| CCCC(C)(COC(N)=O)COC(N)=O [Meprobamate, reference compound] |  | 300 mg/kg |  |  | 18% |  | 11% | 28% |  | 95 mg/kg |  |
| CN1CC[C@]23c4c5ccc(O)c4O[C@H]2[C@@H](O)C=C[C@H]3[C@H]1C5.Cl [Morphine hydrochloride, morphine hydrochloride, reference compound] |  |  |  |  |  |  |  |  |  |  | ED25 ([4]; Mus musculus): 2 mg/kg |
| Cc1c(N(C)C)c(=O)n(-c2ccccc2)n1C [Aminophenazone, 4-dimethylamino-1-phenyl-2,3-dimethylpyrazolone-5, reference compound] |  |  |  | 80 mg/kg |  |  |  |  |  |  |  |
| COc1cc2nc(CCN3CCN(c4cccc(F)c4)CC3)[nH]c(=O)c2cc1OC [Example 15, 2-(2-(1-(3-fluorophenyl)piperazinyl-4)ethyl)-6,7-dimethoxy-4(3H)-quinazolone] | 0.32 mg/kg |  | 200 mg/kg | 1 mg/kg |  | 0.2 mg/kg |  |  | 4.3 mg/kg |  |  |
| CNC1=Nc2ccc(Cl)cc2C(c2ccccc2)=[N+]([O-])C1 [Chlordiazepoxide, chlorodiazepoxide, reference compound] |  | 8 mg/kg |  |  | 324% |  | 15% | 19% |  | 38 mg/kg |  |
| COc1ccc(N2CCN(CCc3nc4cc(OC)c(OC)cc4c(=O)[nH]3)CC2)cc1 [Example 17, 2-(2-(1-(4-methoxyphenyl)piperazinyl-4)ethyl)-6,7-dimethoxy-4(3H)-quinazolone] |  |  |  | 2 mg/kg |  |  |  |  |  |  | Blood pressure lowered by 30% by [10]: 4.5; Blood pressure lowered by 50% by [10]: > 1.5 |
| COc1cc2nc(CCCN3CCN(c4ccccc4OC)CC3)[nH]c(=O)c2cc1OC [Example 20, 2-(3-(1-(2-methoxy-phenyl)-piperazinyl-4)-n-propyl)-6,7-dimethoxy-4(3H)-quinazolone] | 0.05 mg/kg |  | 300 mg/kg | 2 mg/kg |  | 0.65 mg/kg |  |  | 1.15 mg/kg |  |  |
| CCOc1ccccc1N1CCN(CCc2nc3cc(OC)c(OC)cc3c(=O)[nH]2)CC1 [Example 10, 2-(2-(1-(2-ethoxyphenyl)piperazinyl-4)ethyl)-6,7-dimethoxy-4(3H)-quinazolone] | 0.0085 mg/kg |  | 300 mg/kg | 2 mg/kg |  | 0.4 mg/kg |  |  | 1.8 mg/kg |  | Inhibition of the carotid sinus reflex by 30% by (carotid sinus reflex): < 0.02; Inhibition of the carotid sinus reflex by 50% by (carotid sinus reflex): 0.03; Blood pressure lowered by 30% by [10]: 0.03; Blood pressure lowered by 50% by [10]: 1.4 |
| COc1cc2nc(CCN3CCN(c4ccccc4)CC3)[nH]c(=O)c2cc1OC [Example 1, 2-(2-(1-phenylpiperazinyl-4)ethyl)-6,7-dimethoxy-4(3H)-quinazolone] | 0.23 mg/kg | 1000 mg/kg | 70 mg/kg | 1.5 mg/kg | 64% | 0.3 mg/kg | 15% | 55% | 5 mg/kg | 33 mg/kg |  |
| COc1cc2nc(CCN3CCN(c4ccc(C)cc4)CC3)[nH]c(=O)c2cc1OC [Example 4] |  | 70 mg/kg | 100 mg/kg | 3 mg/kg | 125% | 0.65 mg/kg | 51% | 65% |  | 23 mg/kg |  |
| COc1cc2nc(CN3CCN(c4ccccc4OC)CC3)[nH]c(=O)c2cc1OC [Example 18, 2-(1-(2-methoxyphenyl)piperazinyl-4)methyl-6,7-dimethoxy-4(3H)-quinazolone] |  | 1000 mg/kg |  | 8 mg/kg | > 15% |  |  | 12% |  |  |  |
| COc1cc2nc(CCN3CCN(c4cccc(C(F)(F)F)c4)CC3)[nH]c(=O)c2cc1OC [Example 5, 2-(2-(1-(3-trifluoromethylphenyl)piperazinyl-4)ethyl)-6,7-dimethoxy-4(3H)-quinazolone] |  |  |  | < 1 mg/kg |  |  |  |  |  |  |  |
| COc1cc2nc(CCN3CCN(c4cccc(Cl)c4)CC3)[nH]c(=O)c2cc1OC [Example 12, 2-(2-(1-(3-chlorophenyl)piperazinyl-4)ethyl)-6,7-dimethoxy-4(3H)-quinazolone] |  | 500 mg/kg |  | 1.5 mg/kg | 78% |  | 0% | 19% |  |  | ED50 (mouse [9]; [11]): 34 mg/kg |
| COc1cc2nc(CCN3CCN(c4cccc(C)c4)CC3)[nH]c(=O)c2cc1OC [Example 3, 2-(2-(1-(3-tolyl)piperazinyl-4)ethyl)-6,7-dimethoxy-4(3H)-quinazolone] | 0.35 mg/kg | 60 mg/kg | 200 mg/kg | 2 mg/kg | 69% | 0.32 mg/kg | 13% | 41% | 5 mg/kg | 24 mg/kg |  |
| COc1cc2nc(CCN3CCN(c4ccccc4OC)CC3)n(C)c(=O)c2cc1OC [Example 8] | 0.035 mg/kg |  | 350 mg/kg |  |  | 0.12 mg/kg |  |  |  |  |  |
| COc1cc2nc(CCN3CCN(c4ccc(Cl)cc4)CC3)[nH]c(=O)c2cc1OC [Example 13, 2-(2-(1-(4-chlorophenyl)piperazinyl-4)ethyl)-6,7-dimethoxy-4(3H)-quinazolone] |  | 200 mg/kg |  | 2 mg/kg | 44% |  | 15% | 15% |  |  | ED50 (mouse [9]; [11]): 46 mg/kg |
| Cc1ccc(N(CC2=NCCN2)c2cccc(O)c2)cc1 [Phentolamine, phentolamine, reference compound] | 0.047 mg/kg |  | 200 mg/kg |  |  | 0.63 mg/kg |  |  | 0.18 mg/kg |  | Inhibition of the carotid sinus reflex by 30% by (carotid sinus reflex): 0.1; Inhibition of the carotid sinus reflex by 50% by (carotid sinus reflex): 0.5; Blood pressure lowered by 30% by [10]: 0.1; Blood pressure lowered by 50% by [10]: 0.7 |
